Data on 1 compound can be found in article PMC10009755, “Discovery and Characterization of BAY-805, a Potent and Selective Inhibitor of Ubiquitin-Specific Protease USP21” (Journal of Medicinal Chemistry, 2023).

Data set [1] addresses T1, USP21 (Homo sapiens, UniProt Q9UK80).
T1 sequence (Q9UK80 1-565): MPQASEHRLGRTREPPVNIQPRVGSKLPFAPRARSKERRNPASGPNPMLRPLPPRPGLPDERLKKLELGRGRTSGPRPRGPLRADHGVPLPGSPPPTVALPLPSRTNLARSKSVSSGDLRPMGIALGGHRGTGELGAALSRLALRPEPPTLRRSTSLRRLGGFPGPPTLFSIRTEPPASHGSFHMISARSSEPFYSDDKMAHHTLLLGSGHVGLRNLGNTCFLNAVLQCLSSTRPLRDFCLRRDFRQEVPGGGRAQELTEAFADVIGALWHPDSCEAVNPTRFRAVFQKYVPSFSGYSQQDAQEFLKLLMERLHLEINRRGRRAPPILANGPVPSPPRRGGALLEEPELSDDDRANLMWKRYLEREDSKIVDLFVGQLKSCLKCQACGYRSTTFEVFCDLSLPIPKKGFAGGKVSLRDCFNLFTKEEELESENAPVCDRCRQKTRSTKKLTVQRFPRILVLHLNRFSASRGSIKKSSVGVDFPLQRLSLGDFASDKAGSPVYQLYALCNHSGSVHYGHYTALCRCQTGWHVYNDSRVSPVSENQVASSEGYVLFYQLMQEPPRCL
Experimental: The final assay volume was 6 μL. […] First, 2 μL of 1 nM USP21 (or selectivity enzyme) solution was added to the compound plate and preincubated for 15–20 min at room temperature. […] The reaction was stopped by 50 mM citric acid in 25 mM HEPES, pH 7.5, containing 0.01% BSA. […] The USP21 and USP22 were measured with five flashes and USP2 and USP7 in fly mode.

A short description of another data set: in vitro. The data set is classed as in vitro ADME. To be noted: human, Caco-2, pH 7.2. The method, then:
Caco-2 cells [purchased from the German Collection of Microorganisms and Cell Cultures (DSMZ)] were seeded at a density of 4.5 × 10^4 cells/well on 24-well insert plates [0.4 μm pore size, 0.3 cm^2 (Costar)] and grown for 13–15 days in DMEM medium supplemented with 10% fetal calf serum (FCS), 1% GlutaMAX (100×, Gibco), 100 U/mL penicillin, 100 μg/mL streptomycin (Gibco), and 1% nonessential amino acids (100×, Thermo Fischer Scientific). […] The medium was changed every 2–3 days.
The bidirectional transport assay for the evaluation of Caco-2 permeability was undertaken in 24-well insert plates using a robotic system (Tecan). Before the assay was run, the culture medium was replaced by a transport medium (FCS-free HEPES carbonate transport buffer pH 7.2). For the assessment of monolayer integrity, the transepithelial electrical resistance (TEER) was measured. Only monolayers with a TEER of at least 400 Ω·cm^2 were used. Test compounds were pre-dissolved in DMSO and added either to the apical or basolateral compartment at a final concentration of 2 μM. The evaluation was performed in triplicate. […] The efflux ratio (ER) basolateral (B) to apical (A) was calculated by dividing Papp B–A by Papp A–B.

Data set [2] deals with T2, C-terminal HiBiT-tagged USP21 (Homo sapiens, UniProt Q9UK80).
T2 construct: expressed in transfected cells; host or cells: HEK293T
T2 sequence (Q9UK80 1-565): T1 sequence (Q9UK80 1-565)
Kind of data set: USP21 HiBiT CETSA. The following applies: 49 °C, HEK293T cells. The format is cell-based. The method, then: In particular, we utilized a HiBiT CETSA assay format[42],[43] conducted in intact HEK293T cells. Cells were transfected with USP21 fused to a small proluminescent NanoLuc HiBiT tag, which, when complemented with the Large BiT NanoLuc fragment, produces a quantifiable luminescence signal.
HEK293T cells were seeded in a six-well plate at 8 × 10^5 cells/well in 2 mL of DMEM supplemented with 10% FBS, penicillin (100 U/mL), and streptomycin (100 μg/mL) and transfected 4 h after seeding using an X-tremeGENE HP transfection reagent, following the manufacturer’s instructions with a total of 2 μg of plasmid constructs (C-terminally tagged USP21 HiBiT and empty pCDNA3.1 vector). […] The breathable paper adhesive film was then replaced with a PCR adhesive film, and cells were heated at indicated temperatures in an Applied Biosystems VeritiPro thermal cycler for 3 min, followed by 3 min incubation at rt before the addition of LgBiT solution (200 nM LgBiT, 2% NP-40, protease inhibitors (Roche cOmplete, ethylenediaminetetraacetic acid (EDTA)-free Protease Inhibitor) in OptiMEM no phenol red (Gibco)) to lyse cells.
For orientation: The HiBiT peptide binds its large partner to form an active luciferase.

Another data set is described as follows: Aqueous solubility. The data set is classed as physicochemical. The following applies: PBS pH 6.5, pH 6.5, PBS pH 6.5. The method, then: Test compounds were applied as DMSO solutions or directly from powder. After the addition of the buffer, solutions were shaken at rt for 24 h. The undissolved material was removed by filtration or centrifugation. The compound dissolved in the supernatant was quantified by HPLC-UV or HPLC-MS/MS.

Data set [3] concerns the target T1, USP21. Kind of data set: biochemical.
Experimental: To this end, we developed a USP21 activity assay that is based on the deubiquitination of a STING-derived peptide (a USP21-specific substrate[17],[18]) by purified recombinant human full-length USP21 using time-resolved fluorescence resonance energy transfer (TR-FRET) technology (referred to as a homogeneous time-resolved fluorescence (HTRF)-assay, for details see the Supporting Information).[39]
All substrate and enzyme solutions were diluted in an assay buffer. […] Incubation time was 15–20 min at room temperature. […] The stop solution (DUB inhibitor PR619, Abcam) was prepared in 25 mM HEPES, pH 7.5 (Alfa Aesar) containing 0.01% BSA and then left for 10 min at room temperature before filtering with a 0.2 μM PES Membrane (Thermo Fisher). The reaction was stopped with the addition of 2 μL of 200 μM PR619. […] The plates were measured on the ViewLux in screening or PHERAstar FSX in compound profiling. […] The number of flashes per well was set to 3. All of the experimental data were plotted using Genedata analysis. The Z′-factor and S/B of the assay were >0.7 and ∼2, respectively.
Another data set is described as follows: log D measurement (HPLC). The data set is classed as physicochemical. To be noted: reverse-phase HPLC, pH 7.5, pH 7.5, HPLC method; read-out: logD7.5. The method, then:
log D values at pH 7.5 were recorded using an indirect method for determining hydrophobicity constants by reverse-phase HPLC. A series of compounds with well-known log D values were used for calibration. Test compounds were injected into the same HPLC system. The lipophilicity of compounds was then assessed by comparison to the calibration curve.

The subject of a further data set is NF-κB activation. Kind of data set: NF-κB reporter assay. The format is cell-based. To be noted: HEK293T cells, up to 10 μM. As to the method: Yang and colleagues reported that USP21 inhibition induces NF-κB activation by preventing deubiquitination of RIP1.[15] K63 ubiquitinated RIP1 is required for NF-κB activation, and thus USP21-mediated deubiquitination of RIP1 shuts down the NF-κB pathway.
Four hours after replating, cells were treated with compounds or DMSO (note: DMSO concentrations were kept consistent across all cells). Promega Dual-Luciferase Reporter Assay kit was then used to prepare samples for Firefly and Renilla signal measurement on a CLARIOstar microplate reader (BMG) 20 h after compound treatment. Relative luciferase units were calculated by normalizing the Firefly signal to the background Renilla signal, followed by normalization to DMSO controls of wild-type USP21.

pIC50: −log10 of the molar value. Converted amounts (≈) assume the structure as drawn. Read-outs that look alike come from different tables or passages of the source.

In general, pIC50 refers to −log10 of the IC50, conventionally taken in molar units. A higher pIC50 goes with a low IC50. What is called Papp A→B is the apparent permeability from the apical to the basolateral side of a cell layer. For orientation: solubility means how much of the substance goes into solution per volume. A low value points to little dissolved substance. As for `N#Cc1ccc(Cc2nnc(NC(=O)[C@H](NC(=O)C3(C(F)(F)F)CCCCC3)C3CCCC3)s2)cc1` [Compound 20, FC(F)(F)C1(CCCCC1)C(=O)N[C@H](C2CCCC2)C(=O)Nc3nnc(Cc4ccc(cc4)C#N)s3], the negative logarithm of the IC50 (pIC50) against USP21 [1] was 8.10; against USP21 [3] it was 7.89. In “in vitro” (2 μM, 2 h), this compound came in with an apical-to-basolateral permeability (Papp A→B) at 2 h, 2 µM of 3.4 ×10⁻⁶ cm/s. In addition, the efflux ratio at 2 h, 2 µM in “in vitro” (Papp B–A / Papp A–B, read-out: Caco-2 efflux ratio (ER)) turned out to be 0.7. The “cellular thermal stabilization of USP21 (in words)” value in data set [2] was “Strong thermal stabilization of USP21”. The compound also displayed a solubility at 24 h in the data set “Aqueous solubility” of 1.33 µM (≈ 0.691 µg/mL). The chromatographic logD in the data set “log D measurement (HPLC)” is 3.7. Besides, in the data set on NF-κB activation, the “NF-κB activation (in words)” value is given as “significant NF-κB activation levels”.
